Data reported in publication PMC10382351, “In vivo evaluation of a novel ^18F-labeled PET radioligand for translocator protein 18 kDa (TSPO) in monkey brain” (European Journal of Nuclear Medicine and Molecular Imaging, 2023).
Several values for one entry are separate records, joined by “and”; a condition that tells them apart may be missing. Identical values can stand only once. Entries after “also recorded” stand apart in the source; their conditions may differ.

System: 18 kDa translocator protein (TSPO)
Experiment: PET imaging of [^18F]SF51 in rhesus monkey brain with kinetic analysis (2TCM, Logan plot, Lassen plot)
Type: in vivo
Details: for Estimated K1 / VT/fP using Logan plot: Blocked (PK11195); for Estimated K1: three rhesus monkeys; for VT/fP using Logan plot: n=3
Protocol: Electrocardiogram, body temperature, heart rate, and respiratory rate measures were monitored throughout the scan.
Brain PET imaging was performed using a microPET Focus 220 camera (Siemens Medical Solution; Knoxville, TN). […] For baseline experiments, 20 mL of a vehicle containing 20% (2-hydroxypropyl)-β-cyclodextrin and two equivalents of HCl were injected intravenously 10 min before radioligand administration. For the blocked experiment, PK11195 was dissolved in vehicle and then injected intravenously (5 mg/kg) 10 min before radioligand injection for all three monkeys. One of the three monkeys underwent an additional blocked scan with 5 mg/kg of PBR28, performed using a MultiScan™ LFER 150 PET/CT (Mediso USA, LLC; Arlington, VA). The interval between baseline and blocked imaging sessions was at least three weeks in order to allow the monkey to recover from arterial blood sampling. Focus 220 PET images were histogrammed into 30 time frames (6 × 30, 3 × 60, 2 × 120, 4 × 300, and 15 × 600 s) and reconstructed using Fourier rebinning plus a two-dimensional filtered back-projection with scatter and attenuation correction. MultiScan LFER PET images were reconstructed with 3D-OSEM with two iterations and nine subsets and were corrected for scatter and attenuation.
PET images were co-registered to a standardized monkey MRI template using PMOD software (PMOD version 4.1, PMOD Technologies Ltd.; Zurich, Switzerland). Thirty-three predefined regions of interest (ROIs) from a monkey brain template were applied to the co-registered PET images to obtain regional time-activity curves (Supplementary Table S2). Brain uptake was expressed as standardized uptake value (SUV), which normalizes for injected radioactivity and body weight. Using the brain time-activity curves and the radiometabolite-corrected arterial input function, the total VT was derived from a two-tissue compartment model (2TCM). Receptor occupancy by PK11195 and nondisplaceable distribution volume (VND/fP) of [^18F]SF51 were determined by an axes-transformed Lassen plot, where the y-axis reports the difference in VT between the baseline and the blocked scans, corrected by the respective fp values, and the x-axis reports the values at baseline (VTbase/fPbase).

VT/fP (Blocked (PK11195 5 mg/kg i.v.), Hippocampus, 2TCM, n = 3): 21 mL·cm^−3 | VT/fP (Blocked (PK11195 5 mg/kg i.v.), Insula, 2TCM, n = 3): 23 mL·cm^−3 | VT/fP (Blocked (PK11195 5 mg/kg i.v.), Occipital Cortex, 2TCM, n = 3): 23 mL·cm^−3 | VT/fP (Blocked (PK11195 5 mg/kg i.v.), Parietal Cortex, 2TCM, n = 3): 24 mL·cm^−3 | VT/fP (Blocked (PK11195 5 mg/kg i.v.), Striatum, 2TCM, n = 3): 26 mL·cm^−3 | VT/fP (Blocked (PK11195 5 mg/kg i.v.), Temporal Cortex, 2TCM, n = 3): 22 mL·cm^−3 | VT/fP (Blocked (PK11195 5 mg/kg i.v.), Thalamus, 2TCM, n = 3): 27 mL·cm^−3 | VT/fP (Blocked (PK11195 5 mg/kg i.v.), Whole Brain, 2TCM, n = 3): 24 mL·cm^−3 | Estimated K1 (Amygdala, 2TCM): 0.38 mL·cm^-3·min^-1 | VT/fP using Logan plot (Amygdala): 23 mL·cm^-3 | Estimated K1 (Cerebellum, 2TCM): 0.62 mL·cm^-3·min^-1 | VT/fP using Logan plot (Cerebellum): 25 mL·cm^-3 | Estimated K1 (Cingulate Cortex, 2TCM): 0.34 mL·cm^-3·min^-1 | VT/fP using Logan plot (Cingulate Cortex): 24 mL·cm^-3 | Estimated K1 (Frontal Cortex, 2TCM): 0.36 mL·cm^-3·min^-1 | VT/fP using Logan plot (Frontal Cortex): 25 mL·cm^-3 | Estimated K1 (Hippocampus, 2TCM): 0.48 mL·cm^-3·min^-1 | VT/fP using Logan plot (Hippocampus): 21 mL·cm^-3 | Estimated K1 (Insula, 2TCM): 0.37 mL·cm^-3·min^-1 | VT/fP using Logan plot (Insula): 23 mL·cm^-3 | Estimated K1 (Occipital Cortex, 2TCM): 0.40 mL·cm^-3·min^-1 | VT/fP using Logan plot (Occipital Cortex): 22 mL·cm^-3 | Estimated K1 (Parietal Cortex, 2TCM): 0.35 mL·cm^-3·min^-1 | VT/fP using Logan plot (Parietal Cortex): 23 mL·cm^-3 | Estimated K1 (Striatum, 2TCM): 0.65 mL·cm^-3·min^-1 | VT/fP using Logan plot (Striatum): 25 mL·cm^-3 | Estimated K1 (Temporal Cortex, 2TCM): 0.36 mL·cm^-3·min^-1 | VT/fP using Logan plot (Temporal Cortex): 22 mL·cm^-3 | Estimated K1 (Thalamus, 2TCM): 0.50 mL·cm^-3·min^-1 | VT/fP using Logan plot (Thalamus): 26 mL·cm^-3 | Estimated K1 (Whole Brain, 2TCM): 0.41 mL·cm^-3·min^-1 | VT/fP using Logan plot (Whole Brain): 24 mL·cm^-3 | VT/fP (Blocked, PBR28 pre-blockade (5 mg/kg), Amygdala, one monkey): 9 mL·cm^-3 | VT/fP (Blocked, PBR28 pre-blockade (5 mg/kg), Cerebellum, one monkey): 10 mL·cm^-3 | VT/fP (Blocked, PBR28 pre-blockade (5 mg/kg), Cingulate Cortex, one monkey): 10 mL·cm^-3 | VT/fP (Blocked, PBR28 pre-blockade (5 mg/kg), Frontal Cortex, one monkey): 10 mL·cm^-3 | VT/fP (Blocked, PBR28 pre-blockade (5 mg/kg), Hippocampus, one monkey): 9 mL·cm^-3 | VT/fP (Blocked, PBR28 pre-blockade (5 mg/kg), Insula, one monkey): 10 mL·cm^-3 | VT/fP (Blocked, PBR28 pre-blockade (5 mg/kg), Occipital Cortex, one monkey): 10 mL·cm^-3 | VT/fP (Blocked, PBR28 pre-blockade (5 mg/kg), Parietal Cortex, one monkey): 10 mL·cm^-3 | VT/fP (Blocked, PBR28 pre-blockade (5 mg/kg), Striatum, one monkey): 10 mL·cm^-3 | VT/fP (Blocked, PBR28 pre-blockade (5 mg/kg), Temporal Cortex, one monkey): 9 mL·cm^-3 | VT/fP (Blocked, PBR28 pre-blockade (5 mg/kg), Thalamus, one monkey): 12 mL·cm^-3 | VT/fP (Blocked, PBR28 pre-blockade (5 mg/kg), Whole Brain, one monkey): 10 mL·cm^-3 | VND/fP (x-intercept of the regression lines) (Lassen plot, monkey brain, n = 3): 27 ± 11 mL· cm^−3 | Increase of K1 in blocked scans compared to baseline scans (all regions, PK11195): about 30% | x-intercept of Lassen plot (VND/fP) (mean ± SD, n = 3): 27 ± 11 | Mean SUV peak in brain after pre-blockade (monkey brain, after 5 mg/kg PK11195, n = 3): 3.0 ± 0.5 SUV | Brain activity relative to the peak (monkey brain, baseline, at 180 min): 30 % of the peak | Brain activity relative to the peak (monkey brain, baseline, by 110 min): 50 % of the peak | Peak concentration of brain radioactivity (mean SUV peak) (monkey whole brain, baseline, n = 3): 2.0 SUV and 2.0 ± 0.1 SUV
Compound: CC[C@@H](C)N(C)C(=O)c1nc(-c2cccc([18F])c2)c2ccccc2n1 [[^18F]SF51]
Decrease of VT/fP (binding displaced) after blockade with PK11195 (monkey brain, PK11195 5 mg/kg i.v.): ~ 90% | Uptake in the skull (monkey, baseline, blocked by PK11195 and PBR28): No significant uptake; also recorded: low uptake | BPND of whole brain (monkey, ratio of specific binding to nondisplaceable uptake, n = 3): 7.6 ± 4.3 and 7.6
